# From US12171769B2, “Methods, compositions, and kits for treating and/or preventing a side effect associated with radiation and/or chemotherapy exposure” (BioMimetix JV, LLC, priority 2017, dated 2024)
# Like-named read-outs stand apart in the source and are kept apart here.
# How the values were obtained:
# [1] = administered orally on an empty stomach; cited from earlier work
# platelet count = test system: platelet count
# Protocol: (§1) Four different loading doses were tested, which were: 7, 14, 28 and 42 mg, and the maintenance doses were half of the respective loading dose. The loading dose was administered prior to chemoradiation, and for the duration of treatment the respective maintenance doses were administered twice a week (i.e., a patient administered a 7 mg loading dose received two separate maintenance doses of 3.5 mg each week for 8 weeks.) The primary focus of this study is to determine the maximum tolerated dose of four dose levels. […] All subjects have a diagnosis of glioblastoma (WHO grade IV) and mean age is 62.7 years (range 54 years to 80 years).
# In patients receiving temozolomide the standard of care is to stop therapy for patients developing a platelet count below 100,000.
# [2] = TMZ in combination with RT; cited from earlier work
# [3] = stored at 27° C.; cited from earlier work
# cognitive function = conditions: eight subjects, before vs after concurrent chemoradiation (8 weeks)
# Protocol: as §1
# Cognitive testing included Hopkins Verbal Learning Test-Revised (HVLT-R), Trails Making A and B Tests, and Controlled Oral Wood Association Test (COWA). […] This is notable because these are the primary cognitive tests that reveal poorer performance in multiple brain mestastases patients after whole brain radiation therapy.
# [4] = in vivo, 1.5 mg/kg
# Text: The magnitude of such oxidative modification is directly related to the levels of major reactive species involved in the process: H2O2 and MnBuOE.
# xerostomia = conditions: 11 weeks post-RT (9 Gy); 2/1 mg/kg MnBuOE; vs unirradiated control
# Protocol: Xerostomia quantification by stimulating saliva production: Mice were injected intraperitoneally with 3 μg carbomylcholine chloride (Sigma) dissolved in sterile phosphate-buffered saline. Salivation began 2 minutes after injection. Saliva was collected via pipette for 4 minutes. The volume was measured gravimetrically, assuming a density of 1 g/mL.
# GSH/GSSG = conditions: MnBuOE 0.2 mg/kg 24 hours prior to RT (9 Gy); 24 hours post-RT
# Protocol: (§2) MnBuOE synthesis and administration: MnBuOE was synthesized as previously described. […] Mouse injections were administered subcutaneously, with MnBuOE dissolved in sterile saline. Mice received an initial dose of 0.2, 0.6, or 2.0 mg/kg, followed by three times per week (t.i.w.) maintenance doses of one-half of the loading dose (i.e., 0.1, 0.3, or 1.0 mg/kg, respectively) (termed 2/1, 0.6/0.3 and 0.2/0.1 dosing schedules).
# [5] = test system: leukocyte-endothelial cell interactions; conditions: for Effect, repeated measures ANOVA of shear rates / Effect, repeated measures ANOVA of vessel diameter / Effect, repeated measures ANOVA of blood velocity: vs baseline (saline)
# Protocol: as §2
# (§3) A collimating cone that produced a 15 mm×40 mm radiation field was used to target the radiation beam to the salivary gland and oral cavity. The RT field included all major and minor salivary glands (located primarily in the neck region of mice), and the oral mucosa, including glands of the cheeks, lips and tongue. The target tissues were localized within the radiation field with a source-to-subject distance of 30.76 cm, using fluoroscopy at 40 kVp and 2.5 mA with a 2 mm Al filter. […] Control mice were anesthetized but not imaged fluoroscopically or irradiated.
# Mice were anesthetized with 80/8 mg/kg ketamine/xylazine mixture. Acridine orange (Sigma-Aldrich, St. Louis, MO) was injected intravenously (100 μl of 0.1% acridine orange in saline). The ventral surface of the tongue was placed on a glass cover slip before mounting the mouse onto a Zeiss Observer. Z1 (Carl Zeiss A G, Oberkochen, Germany) inverted microscope equipped with Zeiss Filter Set 38.
# Fluorescent excitation was performed at 470 nm, and video was obtained at 525 nm using a 40× objective. Two separate regions with at least four veins in the […] range were identified, and a 60-120 second long video at 5 frames-per-second was obtained using Zen Imaging Software (Carl Zeiss A G, Oberkochen, Germany). Mice were kept warm while anesthetized using a heated stage.
# Leukocyte-endothelial cell interaction analysis: All video analysis was performed in a blinded fashion. Rolling leukocytes were defined as cells that marginated along the vessel wall and were clearly dissociated from the bulk blood flow. Four vessels were analyzed per mouse. Leukocyte counting was repeated in triplicate for each vessel and averaged to obtain the flux of rolling leukocytes (Frolling). Vessel diameter (D) and the velocity of at least one free-flowing leukocyte(s) (VL) were also measured. A pseudo shear rate (gs) was also calculated for each vessel as: gs=8VL/D. These methods have been described previously. (18)
# [6] = test system: normal tissue injury following RT+cisplatin
# Protocol: Mice were treated with 1×9Gy+6 mg/kg cisplatin.
# as §3
# Mucositis evaluation using fluorescence molecular tomography: As reported previously, we used ProSense 750EX (Perkin Elmer, Waltham, MA) to detect mucositis. ProSense 750EX is a near-infrared (NIR) imaging agent that is cleaved by cathepsins, a family of enzymes that are expressed during inflammation, (17). Mice were injected intravenously with 100 μL ProSense 750EX. Twenty-four hours after injection, mice were anesthetized via isoflurane and imaged using the Visen FMT 2500LX (Perkin Elmer). The ProSense 750EX signal was quantified using TrueQuant software (Perkin Elmer Life and Analytical Sciences, Downers Grove, IL).
# [7] = test system: FaDu (human pharyngeal carcinoma) cells
# Protocol: For tumor control studies, female nu/nu mice were obtained from the Duke University Breeding Facility. Mice were group housed in a barrier facility and allowed to acclimate to their new environment for at least one week before experiments.
# Tumor growth delay study: FaDu (human pharyngeal carcinoma) cells were obtained from the Duke University Cell Culture facility and were confirmed to be free of mycoplasma and known rodent pathogens. Cells were grown in Dulbecco's modified Eagle's medium with 10% fetal bovine serum. Mice were injected s.c. in the right flank with 3×10^6 cells suspended in 100 ml serum-free media. Seven days after implantation mice were randomized to treatment groups that received either MnBuOE (0.6 mg/kg loading dose followed by t.i.w. 0.3 mg/kg (loading/3× weekly maintenance) MnBuOE or an equivalent volume of saline. Tumors were measured daily with calipers and the volume was calculated using the equation V=(A^2×B×π)/6, where A is the shortest diameter and B is the longest diameter. As tumors reached 200 mm^3, they randomized into radiation treatment groups consisting of three daily fractions of radiation (6, 9, 12, 15 or 17 Gy/fraction) administered on three consecutive days. Cisplatin (6 mg/kg; APP pharmaceuticals, Schaumberg, IL) was injected intraperitoneally four hours prior to the first radiation fraction. […]
# FaDu tumors = conditions: MnBuOE 1.5 mg/kg b.i.d.; five fractions of radiation (5-10 Gy/fraction); previous work (13); cited from earlier work
# Text for mucositis: Animals: For normal tissue studies, six-to-eight week-old female C57B1/6 mice were used (Jackson Laboratory, Bar Harbor, ME). […] Mice were group housed in a barrier facility and allowed to acclimate to their new environment for at least one week before experiments.
# Mucositis evaluation using fluorescence molecular tomography: As reported previously, we used ProSense 750EX (Perkin Elmer, Waltham, MA) to detect mucositis. […] The ProSense 750EX signal was quantified using TrueQuant software (Perkin Elmer Life and Analytical Sciences, Downers Grove, IL).
compound,measurement,setting,value
"Cn1nnc2c(C(N)=O)ncn2c1=O [TMZ, 8-Carbamoyl-3-methylimidazol[5,1-d]-1,2,3,5-tetrazine-4-(3H)-one]",bioavailable,[1],approximately 100%
same,"patients who developed platelets below 100,000","platelet count; temozolomide + radiation without BMX-001, n=20",9 out of 20
same,Grade 3/4 non-hematological toxicity: Fatigue,[2],7%
same,Grade 3/4 non-hematological toxicity: infection,[2],3%
same,Grade 3/4 non-hematological toxicity: nausea and vomiting with a 5HT3-RA,[2],< 1%
same,Grade 3/4 non-hematological toxicity: other constitutional symptoms,[2],2%
same,Grade 3/4 non-hematological toxicity: rash and dermatologic side effects,[2],1%
same,Grade 3/4 non-hematological toxicity: vision,[2],1%
same,Non-hematological grade 2 toxicity: Fatigue,[2],26%
same,Non-hematological grade 2 toxicity: infection,[2],1%
same,Non-hematological grade 2 toxicity: nausea and vomiting,[2],13%
same,Non-hematological grade 2 toxicity: other constitutional symptoms,[2],7%
same,Non-hematological grade 2 toxicity: rash and dermatologic side effects,[2],9%
same,Non-hematological grade 2 toxicity: vision,[2],14%
N.N.[Cl][Pt][Cl] [cisplatin],stability of reconstituted solution,[3],20 h
manganese butoxyethyl pyridyl porphyrin [BMX-001],Trails Making B Test,cognitive function,faster scores
same,performance on Hopkins Verbal Learning Test-Revised (HVLT-R),"cognitive function; loading 7-28 mg, half dose twice a week",no degradation of performance
same,"patients who developed platelet counts below 100,000","platelet count; BMX-001+temozolomide + radiation, loading doses 7 mg to 28 mg/subject, N=9",None of the nine
same,NIR signal (mucositis signal),"mucositis; day 11 post-RT, 9 Gy, 2/1 mg/kg MnBuOE s.c. (loading/t.i.w. maintenance), vs 0 Gy control",significantly increased
same,NIR signal (mucositis signal),"mucositis; unirradiated mice, 2/1 mg/kg MnBuOE",did not show an appreciable NIR signal
same,MnBuOE concentration in the tumor,[4],1.5 to 2 µM
same,stimulated salivation (xerostomia),xerostomia,significant (p<0.05) decreases
same,GSH/GSSG lower than the 0 Gy MnBuOE tongue levels,GSH/GSSG,4%
same,"Effect, repeated measures ANOVA of shear rates",[5]; MnBuOE + RT (9 Gy),−0.83
same,"Effect, repeated measures ANOVA of vessel diameter",[5]; MnBuOE + RT (9 Gy),0.002
same,"Effect, repeated measures ANOVA of blood velocity","[5]; MnBuOE + RT (9 Gy), 24 hours post-RT",0.01
same,"Effect, repeated measures ANOVA of shear rates",[5]; MnBuOE alone,−20.88
same,"Effect, repeated measures ANOVA of vessel diameter",[5]; MnBuOE alone,0.009
same,"Effect, repeated measures ANOVA of blood velocity","[5]; MnBuOE alone, 24 hours post sham RT",−0.00
same,leukocyte rolling,[5]; MnBuOE treatment alone,without increasing leukocyte rolling
same,mean number of rolling leukocytes,"[5]; combination of 0.2/0.1 MnBuOE and RT, 24 hours post-RT",decreases
same,NIR signal (mucositis),"[6]; 1×9 Gy + 6 mg/kg cisplatin, MnBuOE 0.6 mg/kg loading, t.i.w. 0.3 mg/kg for five weeks, vs saline plus RT+cisplatin",significantly less NIR signal
same,xerostomia (saliva production),"[6]; 10, 11 and 12 weeks, MnBuOE for the first five weeks after RT+cisplatin, data not shown",trend towards reduced xerostomia
same,body weight,"[6]; 10 weeks post-RT+cisplatin, MnBuOE 0.6/0.3 mg/kg, vs unirradiated control mice",not significantly different
same,long-term ulcerations and moist desquamation in the irradiated area,"[6]; RT+cisplatin, MnBuOE vs saline",lessened
same,"Kaplan-Meier analysis (time to tripling of tumor volume), MnBuOE vs saline treated mice","[7]; 0.6/0.3 mg/kg, at any radiation dose",no significant differences
same,"slope of the dose response curve of tumor inhibition (AUC of dynamic treatment effect curves), MnBuOE vs control arm",[7]; p-value=0.47,no significant difference
same,dose-modifying effect (TCD50 curve),FaDu tumors,1.3
